Measurements published in patent publication US20260250641A1, “COMPOSITIONS AND USES THEREOF FOR STABILIZATION OF BLOOD SAMPLE COMPONENTS” (STRECK LLC, priority 2023, published 2026).
“Also recorded” adds a separate entry of the source.

What was measured:
plasma proteins = experiment: Venous blood, Luminex xMAP Multiplex Immunoassay Panel; format: cell-based; settings: room temperature storage, 3 to 5 days
Experimental: After double-spin process, isolated plasma fractions were tested with Luminex xMAP Multiplex Immunoassay Panel.

RBC = experiment: In vitro hemolysis, absorbance at 414 nm (Nanodrop); format: cell-based; settings: venous blood, room temperature up to 5 days, N=15
Source text: Hemolysis was quantitatively measured by following the absorbance at 414 nm with Nanodrop. An increased A414 indicates releasing of hemoglobin from broken RBC, which is a key event of hemolysis.

cfDNA [1] = experiment: cfDNA stability: Qubit HS DNA Assay, total plasma cfDNA
Source text: (§1) The drawn blood samples were stored at room temperature for up to 7 days. Total cell-free nucleic acids were isolated from day 0 or day 7 blood samples using Qiagen's QIAamp Circulating Nucleic Acid Kit.
(§2) The resultant plasma cfDNA was first studied with Qubit HS DNA Assay (FIG. 5A), which quantifies the concentration of total plasma cfDNA. Without proper stabilization, white blood cells in drawn blood will lyse during storage and release large amounts of genomic DNA fragments into the plasma, leading to elevated total plasma cfDNA. Compared to cfDNA originating from white blood cells, tumor-derived cfDNA is preset at a very low concentration. Tumor-derived cfDNA should not be detectable in healthy donors.

β-actin (ACTB) = experiment: cfDNA stability: plasma β-actin (ACTB) by digital droplet PCR; settings: day 7 blood, ambient storage
Source text: as §1, §2

cfDNA [2] = experiment: cfDNA stability: Agilent cfDNA ScreenTape Assay
Source text: as §1
Plasma cfDNA was further analyzed with Agilent cfDNA ScreenTape Assay on Agilent TapeStation (FIGS. 5C & 5D). […] Thus, the percentage of cfDNA between 150-300 bp among total cfDNA (% cfDNA) was used to indicate genomic DNA contamination (FIG. 5D).

cfRNA [3] = experiment: cfRNA stability: Agilent RNA Pico Kit, Bioanalyzer; settings: day 7 versus freshly collected blood
Source text: (§3) Total cell-free nucleic acids were isolated from day 0 or day 7 blood samples using Qiagen's QIAamp Circulating Nucleic Acid Kit.
The plasma cfRNA was first analyzed with Agilent's RNA Pico Kit on the Agilent Bioanalyzer system (FIG. 6A).

cfRNA [4] = experiment: cfRNA stability: Qubit miRNA Assay, total plasma cfRNA; settings: 7 days ambient storage
Source text: as §3
Qubit miRNA Assay was used to quantify the concentration of total plasma cfRNA. If RNA-containing cells, such as reticulocytes and white blood cells, were lysed during storage, then large amounts of RNA fragments would be released into plasma, masking the very low abundant circulating cfRNA while resulting in elevated cfRNA.

red blood cells = experiment: TAP II capillary blood study: hemolysis (A414); format: cell-based; settings: venous blood and TAP II capillary blood, up to 3 days room temperature
Source text: Blood samples were stored at room temperature for up to 3 days.

platelets [5] = experiment: Tasso+ capillary blood study: plasma MPO and RANTES; format: cell-based; settings: venous and Tasso+ capillary blood, up to 3 days room temperature
Experimental: Tasso+ is a single-use device that collects up to 0.5 mL of capillary blood from a donor's upper arm. Tasso+ is compatible with BD Microtainer® Blood Collection Tubes.
Capillary blood samples were collected from 3 donors. […] Blood samples were stored at room temperature for up to 3 days. Three functionality assays were conducted, including measuring hemolysis (FIG. 8A) and testing the plasma level of MPO (FIG. 8B) and RANTES (FIG. 8C).

TGF-β1 = experiment: Spray-coated microcollection tubes: plasma TGF-β1 (Ella); format: cell-based; settings: 3-day room temperature storage, spray-coated microcollection tubes (FIG. 10)
Experimental: (§4) Blood was collected from healthy donors, each collected into 1×5 mL EDTA vacutainer tubes and virgin (no anticoagulant). Next, venous blood was aliquoted as quickly as possible into the spray-coated microtainers. The EDTA blood was aliquoted into virgin Greiner microtainers as negative controls. The blood with no anticoagulant was aliquoted into microcollection tubes spray coated with one of three formulations noted in Table 2 below, with two tubes per formulation. The sprayed microtainers were then mixed 15-20 times with the blood sample.
(§5) Half of the samples were analyzed at draw time and the remaining half were stored at room temperature for 3 days before analysis. Plasma protein concentration of TGF-β1 was analyzed with Ella (FIG. 10). Plasma β-Actin level was determined by ddPCR (FIG. 11).

β-Actin DNA (ACTB) = experiment: Spray-coated microcollection tubes: plasma β-Actin by ddPCR
Experimental: as §4, §5

platelets [6] = experiment: First round screening of platelet activation inhibitors: plasma TGF-β1 by Ella immunoassay; format: cell-based; settings: inhibitor added to Streck B formulation; venous blood at room temperature; data not shown
Experimental: Blood specimens drawn from 3 donors were stored at room temperature for […]. Activated platelet secret granule contents, such as growth factors, chemokines, and cytokines, into plasma. Elevated plasma concentration of TGF-β1 indicates platelet activation and granule release. Plasma TGF-β1 level was measured with immunoassay using Ella Automated Immunoassay System. Freshly drawn blood (day 0), blood stored for 1 day (Day 1), 3 days (Day 3), and 7 days (Day 7) were tested.
The tested formulations are compared with EDTA and ACD-A for their ability to prevent granule release from platelets. Streck B formulation spiked with 2 mM tetracaine was also used as a reference.

platelets [7] = experiment: Second round screening: % activated platelets (CD62P/CD61 flow cytometry) and plasma TGF-β1; format: cell-based; settings: inhibitor in Streck B formulation at 3 to 5 dosages; room temperature up to 7 days; data not shown
Experimental: Preservative formulations were made by adding platelet activation inhibitors to the Streck B formulation at the desired concentrations. Venous blood specimens from 2 donors were then drawn into blood collection tubes (BCTs) prefilled with these formulations. As references, blood specimens were also drawn into EDTA tubes, ACD-A tubes, tubes filed with Streck B formulation, and tubes containing Streck B formulation spiked with and 2 mM tetracaine. Blood specimens were stored at room temperature for up to 7 days.
The percentages of activated platelets (CD62P positive) among total platelets (CD61 positive) in drawn whole blood were measured by flow cytometry. The percentage of activated platelets was tested with Day 0 and Day 3 blood specimens. The plasma levels of TGF-β1 in Day 0, Day 1, Day 3, and Day 7 old blood specimens were measured with immunoassay.

[8] = test system: white blood cells, red blood cells, and platelets; experiment: Third round screening: plasma MPO, ferritin and RANTES as blood cell damage indicators; format: cell-based; settings: inhibitor in Streck B formulation; 7-day room temperature storage; data not shown
Experimental: The effects of these seven inhibitors on white blood cells, red blood cells, and platelets were evaluated during the third round of screening. […] Therefore, plasma levels of myeloperoxidase (MPO), ferritin, and RANTES were measured with immunoassay as damage indicators of white blood cells, red blood cells, and platelets, respectively. Preservative formulations were made by adding platelet activation inhibitors to Streck B formulation at concentrations determined through the second round of screening. Venous blood was collected from 2 donors for all preservative formulations. EDTA, ACD-A, Streck B formulation and Streck B formulation spiked with 2 mM Tetracaine were used as references. Draw whole blood samples were stored at room temperature for up to 7 days.

platelets [9] = settings: 2 mM mexiletine or 1 mM verapamil in Streck B formulation; tubes stored 2-50° C. up to 8 weeks; data not shown
Source text: Freshly made tubes, 2 weeks old tubes, 4 weeks old tubes, and 8 weeks old tubes were then used to collect venous blood from 2 self-proclaimed healthy donors. Blood specimens were stored at room temperature for up to 3 days. The percentage of platelet activation and plasma level of TGF-31 to test the ability of the aged formulation to prevent platelets activation at collection time and during room temperature storage.

| Compound | outcome of first round screening (maintaining plasma TGF-β1 comparable to Streck B formulation with tetracaine) (platelets [6]) | ability to reduce platelet activation in second round screening (platelets [7]) | adverse effects on white blood cells, red blood cells and platelet [8] | other results |
| --- | --- | --- | --- | --- |
| O=C(O)CN(CCN(CC(=O)O)CC(=O)O)CC(=O)O [EDTA, ethylene diamine tetra acetic acid] | – | – | – | plasma concentrations of representative proteins and cytokines (FIG. 2: MPO, TGF-β1, CCL5/RANTES, MMP-9, VEGF, Granzyme B, TNFα, IL-8) (plasma proteins): elevated levels; also recorded: marked increase; in vitro hemolysis (A414) (RBC): in vitro hemolysis since day 3; also recorded: significant hemolysis; total plasma cfDNA concentration (cfDNA [1]; day 0 blood): low concentrations of cfDNA; total plasma cfDNA concentration (cfDNA [1]; day 7 blood, room temperature): elevated total cfDNA; plasma level of β-actin (ACTB) DNA (β-actin (ACTB)): high amount of ACTB; % cfDNA (cfDNA between 150-300 bp among total cfDNA) (cfDNA [2]; Day 0 blood): 75%; plasma cfDNA electropherogram plots (cfDNA [2]; Day 7 blood): prominent peak of apoptotic-ladder DNA; % cfDNA (cfDNA between 150-300 bp among total cfDNA) (cfDNA [2]; Day 7 blood, room temperature): 30%; plasma cfRNA electropherogram (concentration and population) (cfRNA [3]): greatly changed; increase of total cfRNA after storage (cfRNA [4]): ~5 fold; hemolysis (red blood cells): induces hemolysis; granule release from activated platelets (plasma MPO and RANTES) (platelets [5]): increased; change of plasma TGF-β1 level after storage (TGF-β1): drastically increased; level of β-Actin in 3-day old plasma versus draw time plasma (β-Actin DNA (ACTB); 3 days room temperature (FIG. 11)): more than 20 fold; plasma β-Actin DNA level after storage (genomic DNA contamination) (β-Actin DNA (ACTB); 3 days room temperature, spray-coated tubes (FIG. 11)): led to genomic DNA (β-Actin) contamination |
| CCCCN1CCCCC1C(=O)Nc1c(C)cccc1C (stereo not drawn) [bupivacaine] | graduated from the first round of the screening | behaved at least comparable to each other | little adverse effects | – |
| COc1ccc([C@@H]2Sc3ccccc3N(CCN(C)C)C(=O)[C@@H]2OC(C)=O)cc1 [diltiazem] | graduated from the first round of the screening | behaved at least comparable to each other | little adverse effects | – |
| CCN(CC)CC(=O)Nc1c(C)cccc1C [lidocaine] | – | behaved at least comparable to each other | little adverse effects | – |
| Cc1cccc(C)c1NC(=O)C1CCCCN1C (stereo not drawn) [mepivacaine] | graduated from the first round of the screening | behaved at least comparable to each other | little adverse effects | – |
| Cc1cccc(C)c1OCC(C)N (stereo not drawn) [mexiletine] | graduated from the first round of the screening | behaved at least comparable to each other | little adverse effects | functional stability of aged formulations compared to other tested ion inhibitors (platelets [9]): better functional stability |
| C=C[C@H]1C[N@@]2CC[C@H]1C[C@@H]2[C@@H](O)c1ccnc2ccc(OC)cc12 [quinidine] | graduated from the first round of the screening | behaved at least comparable to each other | little adverse effects | – |
| COc1ccc(CCN(C)CCCC(C#N)(c2ccc(OC)c(OC)c2)C(C)C)cc1OC (stereo not drawn) [verapamil] | graduated from the first round of the screening | behaved at least comparable to each other | little adverse effects | – |
